Consider 14 compounds from PubChem BioAssay AID280 (DTP/NCI, 2004).

This assay relates to nude mice, LOX melanoma ip, survival T/C. The experiment in a line: NCI In Vivo Anticancer Drug Screen. Data for tumor model Human Amelanotic Melanoma (LOX) (intraperitoneal) in NU/NU BALB/C (nude) mice. The note with it: endpoint: median survival time, schedule: Q04DX003 (ip), higher = longer survival. The procedure: The antitumor activity of compounds was measured in mice bearing transplantable tumors. Survival or tumor size were measured and the results are expressed as the measurement made in the treated group (T) divided by the measurement made in the vehicle treated control group (C). The tumor model used in this assay is Human Amelanotic Melanoma (LOX) (intraperitoneal) in NU/NU BALB/C (nude) mice

[1] abbreviates: dose: 75.0 mg/kg/injection, vehicle: saline with Tween-80.
Where [2] appears, read: dose: 150.0 mg/kg/injection, vehicle: saline with Tween-80.

Structures are written as SMILES. Several values for one entry are separate records, joined by “and”; a condition that tells them apart may be missing. Identical values can stand only once. Inconclusive results and toxic doses are left out.

For `Nc1nc2n[nH]nc2c(=O)[nH]1`, the T/C (dose: 37.5 mg/kg/injection, vehicle: suspension in saline) is 164 % of control; the T/C (dose: 75.0 mg/kg/injection, vehicle: suspension in saline) is 177 % of control; the T/C (dose: 150.0 mg/kg/injection, vehicle: suspension in saline) was 217 % of control; the T/C (dose: 300.0 mg/kg/injection, vehicle: suspension in saline) was 251 % of control.

Consider `O=C1C=CC(=CC=C2C=CN(CCCCCCCCCCCO)C=C2)C=C1`, for which the T/C (dose: 6.25 mg/kg/injection, vehicle: saline with Tween-80) is 107 % of control; the T/C (dose: 12.5 mg/kg/injection, vehicle: saline with Tween-80) was 100 % of control; the T/C (dose: 36.0 mg/kg/injection, vehicle: saline with Tween-80) was 109 % of control and 110 % of control; the T/C (dose: 50.0 mg/kg/injection, vehicle: saline with Tween-80) is 117 % of control; the T/C (dose: 60.0 mg/kg/injection, vehicle: saline with Tween-80) is 116 % of control and 120 % of control; the T/C (dose: 200.0 mg/kg/injection, vehicle: saline with Tween-80) was 159 % of control.

For the compound `CN(C)CCCN=c1c2ccccc2n(C)c2[nH]c(=O)n(C)c(=O)c12`, the T/C is, setting by setting: (dose: 12.5 mg/kg/injection, vehicle: saline) 112 % of control; (dose: 50.0 mg/kg/injection, vehicle: saline) 107 % of control.

Take `CN(C)C(=O)SC1=C(c2c(Cl)cccc2Cl)C(=O)c2ccccc21`: the T/C is, setting by setting: (dose: 75.0 mg/kg/injection, vehicle: Klucel (hydroxypropylcellulose) (HPC)) 103 % of control and 110 % of control; (dose: 150.0 mg/kg/injection, vehicle: Klucel (hydroxypropylcellulose) (HPC)) 112 % of control and 97 % of control; (dose: 300.0 mg/kg/injection, vehicle: Klucel (hydroxypropylcellulose) (HPC)) 109 % of control and 92 % of control; (dose: 600.0 mg/kg/injection, vehicle: Klucel (hydroxypropylcellulose) (HPC)) 110 % of control and 123 % of control; (dose: 1200.0 mg/kg/injection, vehicle: Klucel (hydroxypropylcellulose) (HPC)) 105 % of control.

Consider `COC1C(O)CC(OC2CC(Oc3cc4cc5c(c(O)c4c(O)c3C)C(=O)[C@@H](OC3CC(OC4CC(OC6CC(C)(O)C(OC(C)=O)C(C)O6)C(O)C(C)O4)C(O)C(C)O3)[C@H]([C@H](OC)C(=O)[C@@H](O)[C@@H](C)O)C5)OC(C)C2OC(C)=O)OC1C` (some centres undefined), for which the T/C was 116 % of control (dose: 0.15 mg/kg/injection, vehicle: Klucel (hydroxypropylcellulose) (HPC)); 314 % of control (dose: 0.3 mg/kg/injection, vehicle: Klucel (hydroxypropylcellulose) (HPC)); 198 % of control (dose: 0.6 mg/kg/injection, vehicle: Klucel (hydroxypropylcellulose) (HPC)).

As to `CN(C)/N=N/c1nc[nH]c1C(N)=O`, the T/C (dose: 100.0 mg/kg/injection, vehicle: Klucel (hydroxypropylcellulose) (HPC)) is 107 % of control.

As to `[N-]=[N+]=[N-]`, the T/C reads like this: (dose: 1.5 mg/kg/injection, vehicle: water) 99 % of control; (dose: 3.0 mg/kg/injection, vehicle: water) 104 % of control; (dose: 12.0 mg/kg/injection, vehicle: water) 89 % of control; (dose: 24.0 mg/kg/injection, vehicle: water) 104 % of control.

Take `CCOC(=O)Nc1cc2c(c(N)n1)N=C(c1ccc3ccccc3c1)CN2`: the T/C runs as follows: (dose: 14.4 mg/kg/injection, vehicle: saline with Tween-80) 100 % of control; (dose: 24.0 mg/kg/injection, vehicle: saline with Tween-80) 123 % of control; (dose: 40.0 mg/kg/injection, vehicle: saline with Tween-80) 103 % of control and 112 % of control; (dose: 66.66 mg/kg/injection, vehicle: saline with Tween-80) 109 % of control; (dose: 67.0 mg/kg/injection, vehicle: saline with Tween-80) 111 % of control; (dose: 111.0 mg/kg/injection, vehicle: saline with Tween-80) 112 % of control. Moreover, the T/C (dose: 185.0 mg/kg/injection, vehicle: saline with Tween-80) is 122 % of control.

Take `CO[C@@H]1C2=CC=CC=C[C@H]2n2c(=O)n(C)c(=O)n21`: the T/C is 104 % of control (dose: 37.5 mg/kg/injection, vehicle: other); 105 % of control (dose: 75.0 mg/kg/injection, vehicle: other); 102 % of control (dose: 150.0 mg/kg/injection, vehicle: other).

Regarding `Cc1noc2nc(-c3ccccc3)cc(N3CCN(C)CC3)c12`, the T/C reads like this: (dose: 25.0 mg/kg/injection, vehicle: other) 97 % of control; (dose: 54.0 mg/kg/injection, vehicle: other) 97 % of control; (dose: 100.0 mg/kg/injection, vehicle: other) 97 % of control; (dose: 200.0 mg/kg/injection, vehicle: other) 93 % of control; (dose: 400.0 mg/kg/injection, vehicle: other) 98 % of control.

Take `CC(C)NC(=O)OCc1c(COC(=O)NC(C)C)c(-c2ccc(Cl)c(Cl)c2)n2c1CCC2`: the T/C is, setting by setting: under setting [1], 238 % of control; (dose: 75.0 mg/kg/injection, vehicle: saline) 152 % of control; under setting [2], 324 % of control; (dose: 150.0 mg/kg/injection, vehicle: saline) 210 % of control; (dose: 300.0 mg/kg/injection, vehicle: saline with Tween-80) 313 % of control; (dose: 300.0 mg/kg/injection, vehicle: saline) 178 % of control. Moreover, the T/C is 344 % of control (dose: 600.0 mg/kg/injection, vehicle: saline) and 344 % of control (dose: 1200.0 mg/kg/injection, vehicle: saline).

Regarding `O=C1C=C(N2CC2)C(=O)C(N2CC2)=C1N1CC1`, the T/C is, setting by setting: (dose: 25.0 micrograms/kg/injection, vehicle: saline) 177 % of control; (dose: 43.0 micrograms/kg/injection, vehicle: saline) 116 % of control; (dose: 100.0 micrograms/kg/injection, vehicle: saline) 220 % of control; (dose: 120.0 micrograms/kg/injection, vehicle: saline) 158 % of control; (dose: 200.0 micrograms/kg/injection, vehicle: saline) 277 % of control; (dose: 333.0 micrograms/kg/injection, vehicle: saline) 187 % of control.

With `COC1CC2C=C(C)/C=C/C=C/C(=O)NC(c3ccccc3)C/C=C/CCC(O)CC(=O)C2=C1O` (centres undefined), the T/C was 112 % of control (dose: 18.75 mg/kg/injection, vehicle: Klucel (hydroxypropylcellulose) (HPC)) and 187 % of control (dose: 37.5 mg/kg/injection, vehicle: Klucel (hydroxypropylcellulose) (HPC)).

In the case of `COc1ccc(S(=O)(=O)N=N/C=C2\C=CC=CN2O)cc1OC`, the T/C (dose: 9.38 mg/kg/injection, vehicle: saline with Tween-80) is 116 % of control; the T/C (dose: 18.75 mg/kg/injection, vehicle: saline with Tween-80) is 101 % of control; the T/C (dose: 37.5 mg/kg/injection, vehicle: saline with Tween-80) was 94 % of control; the T/C (dose: 54.0 mg/kg/injection, vehicle: saline with Tween-80) was 124 % of control; the T/C under setting [1] is 105 % of control; the T/C under setting [2] is 173 % of control. Moreover, the T/C (dose: 250.0 mg/kg/injection, vehicle: saline with Tween-80) is 165 % of control and the T/C (dose: 416.67 mg/kg/injection, vehicle: saline with Tween-80) was 156 % of control.
